The source of these data is ChEMBL document CHEMBL6153040, “Discovery of the salicylaldehyde-based compound DDO-02267 as a lysine-targeting covalent inhibitor of ALKBH5” (Eur J Med Chem, 2025).

As a reminder, the IC50 is the concentration needed to halve the response being measured. A lower IC50 goes with greater potency in that assay. Broadly, the Kd is the constant that tells how readily two partners part at equilibrium.

Activity calls are given as the source filed them. No cut-off for these calls is given here.

The target in test [1] is T1, RNA demethylase ALKBH5 (Homo sapiens, UniProt Q6P6C2). The test is described as follows: Inhibition of ALKBH5 (66 to 292 residues) (unknown origin) extracted from Escherichia coli BL21 (DE3) cells using m6A ssDNA as substrate at 1.25 to 10 uM incubated for 2 hrs in presence of 2-OG by TBE-PAGE based restriction enzyme digestion assay. The note with it: dose 1.25-10 µM.
Target sequence in this assay (Q6P6C2 2-394 limits assumed): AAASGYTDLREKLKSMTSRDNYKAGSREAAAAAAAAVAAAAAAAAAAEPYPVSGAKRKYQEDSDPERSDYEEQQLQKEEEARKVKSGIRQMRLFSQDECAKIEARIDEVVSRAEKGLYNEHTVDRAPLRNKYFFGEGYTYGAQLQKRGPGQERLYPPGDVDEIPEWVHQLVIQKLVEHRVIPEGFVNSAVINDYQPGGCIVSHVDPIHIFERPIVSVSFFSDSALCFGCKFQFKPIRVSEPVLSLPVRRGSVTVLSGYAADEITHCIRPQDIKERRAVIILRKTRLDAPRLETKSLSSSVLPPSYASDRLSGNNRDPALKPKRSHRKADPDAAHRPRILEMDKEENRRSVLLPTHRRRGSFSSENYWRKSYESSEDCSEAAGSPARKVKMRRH

For test [2], the system named is MOLM-13. Put plainly: Induction of apoptosis in human MOLM-13 cells assessed as late apoptotic cells at 40 uM incubated for 72 hrs by Annexin V FITC/PI staining based flow cytometry analysis (reference value: 4.28 %). The class given is functional. A general note: Flow cytometry measures light scatter and fluorescence of single cells or particles in a stream.
Test [3] concerns the target T1, RNA demethylase ALKBH5. Put plainly: Inhibition of ALKBH5 (66 to 292 residues) (unknown origin) extracted from Escherichia coli BL21 (DE3) cells using m6A ssDNA as substrate measured after 180 mins by fluorescence polarization assay. Background: Fluorescence polarisation rises when a labelled molecule tumbles more slowly, as on binding a larger partner.
Target sequence in this assay (Q6P6C2 whole entry, the tested form may be a part): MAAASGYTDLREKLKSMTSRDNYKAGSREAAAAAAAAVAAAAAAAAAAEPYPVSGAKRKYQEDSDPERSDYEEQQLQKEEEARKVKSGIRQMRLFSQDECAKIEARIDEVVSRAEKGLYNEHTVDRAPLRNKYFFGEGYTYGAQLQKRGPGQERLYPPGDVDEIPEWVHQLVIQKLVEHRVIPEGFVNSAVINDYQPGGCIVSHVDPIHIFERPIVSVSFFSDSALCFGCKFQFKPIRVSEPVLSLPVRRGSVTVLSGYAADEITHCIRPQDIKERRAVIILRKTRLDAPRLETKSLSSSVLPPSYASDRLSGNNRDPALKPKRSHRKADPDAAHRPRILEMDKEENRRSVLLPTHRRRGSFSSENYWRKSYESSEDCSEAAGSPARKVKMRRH
Test [4] has as its target T1, RNA demethylase ALKBH5. Put plainly: Binding affinity to ALKBH5 (66 to 292 residues) (unknown origin) extracted from Escherichia coli BL21 (DE3) cells assessed as dissociation constant incubated for 1 hrs by MST analysis.
Target sequence in this assay (Q6P6C2 whole entry, the tested form may be a part): as above
Test [5] deals with T1, RNA demethylase ALKBH5. The test is described as follows: Binding affinity to ALKBH5 (66 to 292 residues) (unknown origin) extracted from Escherichia coli BL21 (DE3) cells assessed as dissociation constant incubated for 1.5 hrs by MST analysis.
Target sequence in this assay (Q6P6C2 whole entry, the tested form may be a part): as above
Test [6] concerns the target T1, RNA demethylase ALKBH5. The test is described as follows: Inhibition of ALKBH5 (66 to 292 residues) (unknown origin) extracted from Escherichia coli BL21 (DE3) cells using m6A ssDNA as substrate measured after 40 mins by fluorescence polarization assay.
Target sequence in this assay (Q6P6C2 whole entry, the tested form may be a part): as above
The subject of test [7] is MOLM-13. The test is described as follows: Downregulation of AXL mRNA expression levels in human MOLM-13 cells at 10 to 80 uM incubated for 72 hrs by qRT-PCR analysis. The test is classed as functional, cell-based. Particulars: dose 10-80 µM. A general note: Quantitative PCR measures a nucleic acid by following its amplification.
Test [8] has as its system MOLM-13. The test is described as follows: Induction of cell cycle arrest in human MOLM-13 cells assessed as accumulation of cells at G2/M phase at 80 uM incubated for 72 hrs by flow cytometry analysis (reference value: 17.53 %). The class given is functional.
Test [9] relates to MOLM-13. The test is described as follows: Induction of apoptosis in human MOLM-13 cells assessed as early apoptotic cells at 80 uM incubated for 72 hrs by Annexin V FITC/PI staining based flow cytometry analysis (reference value: 4.32%). The class given is functional.

In the case of `O=Cc1cc(S(=O)(=O)NC(=O)c2cc(C(=O)O)ccn2)c2ccccc2c1O`, the inhibition entry on RNA demethylase ALKBH5 [1] is “Active”. The Activity was 4.62% in the test with MOLM-13 [2], 22.22% in the test with MOLM-13 [8] and 9.16% with MOLM-13 [9]. Also, the IC50 at RNA demethylase ALKBH5 [3] was 280 nM; against RNA demethylase ALKBH5 [6], 580 nM. Moreover, the Kd is 2630 nM at RNA demethylase ALKBH5 [4] and 1140 nM at RNA demethylase ALKBH5 [5]. Besides, the outcome in the test on MOLM-13 [7] was Active.
